Measured values as given in patent US20240279298A1 (BEIJING TUO JIE BIOPHARMACEUTICAL CO. LTD., priority 2021, published 2024).
≈ marks a conversion by molar mass, not a printed value. Where a SMILES comes first, the peptide text is derived from it. [ ]: non-standard residue; d: D form. Aib = CC(C)(N)C(=O)O

Columns and labels:
human GLP-1R = biological target: T1, human GLP-1R (Homo sapiens, UniProt P43220); experiment: Agonist activity assay for GLP-1R (cAMP HTRF); format: cell-based
T1 construct: expressed in transfected cells
Description: (§1) The activation of GCGR by related compounds will stimulate the formation of cyclic adenosine monophosphate (cAMP) in cells. Thus, the receptor activity can be monitored by cAMP production in proper cells expressing the receptor.
(§2) Agonist activity assay for GCGR: Cryopreserved stable CHO-K1/GCGR/CRE-Luc cells were taken from a liquid nitrogen tank, thawed in a 37° C. water bath, resuspended in DMEM/F12 medium (Sigma Cat #D8437), centrifuged, and seeded into T75 culture flasks. The cells were passaged at least once for subsequent tests. Before testing, the cells were trypsinized, centrifuged, washed once, and resuspended in serum-free DMEM/F12 medium. The cell density was adjusted, and the cells were plated in a 96-well plate at a density of 2,500 cells/5 μL/well. A 1×buffer solution in Cisbio-cAMP-Gs Dynamic kit was prepared, and IBMX was added at a final concentration of 0.5 mM. 5 μL of polypeptide serially diluted by buffer was added into each well, and the plate was shaken gently for mixing and incubated for 30 minutes at 37° C. cAMP-d2 and Anti-cAMP-Eu^3+-Cryptate were 20-fold diluted with cAMP Lysis and detection buffer respectively and mixed well. 5 μL of diluted cAMP-d2 solution and 5 μL of diluted Anti-cAMP-Eu^3+-Cryptate solution were sequentially added into each well. The mixture was mixed well by moderate vibration, and incubated for 1 hour at room temperature away from light.
Agonist activity assay for GLP-1R: The method differed from the method described above for the agonist activity assay for GCGR in that a stable CHO-GLP-1R cell line was used.

human GIPR = biological target: T2, human GIPR (Homo sapiens, UniProt P48546); experiment: Agonist activity assay for GIPR (cAMP HTRF); format: cell-based
T2 construct: expressed in transfected cells
T2 sequence (P48546 22-466): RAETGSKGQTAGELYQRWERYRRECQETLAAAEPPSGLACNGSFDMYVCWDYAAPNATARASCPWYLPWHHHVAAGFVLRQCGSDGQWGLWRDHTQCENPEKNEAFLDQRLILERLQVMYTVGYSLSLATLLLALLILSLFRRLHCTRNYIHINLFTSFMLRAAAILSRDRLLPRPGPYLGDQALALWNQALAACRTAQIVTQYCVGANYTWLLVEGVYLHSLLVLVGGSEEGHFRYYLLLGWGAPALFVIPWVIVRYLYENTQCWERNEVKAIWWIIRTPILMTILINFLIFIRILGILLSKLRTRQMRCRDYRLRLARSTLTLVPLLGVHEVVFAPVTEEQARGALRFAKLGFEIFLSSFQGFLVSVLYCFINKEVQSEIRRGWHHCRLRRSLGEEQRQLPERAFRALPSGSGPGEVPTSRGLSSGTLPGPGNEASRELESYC
Description: as §1, §2
Agonist activity assay for GIPR: The method differed from the method described above for the agonist activity assay for GCGR in that a stable CHO-K1/GIPR cell line was used, and the cell density was 3,000 cells/5 μL/well.

[1] = Maximum solubility in phosphate buffer pH 7.4; format: physicochemical; settings: phosphate buffer pH 7.4, room temperature
[2] = test system: normal rats (blood glucose); experiment: Efficacy in normoglycemic rat model; format: in vivo, SD rats; settings: for Blood glucose 15 min / Blood glucose 30 min / Blood glucose 45 min / Blood glucose 60 min: normal rats; for Hyperglycemic efficacy (in words): normoglycemic rats, subcutaneous
[3] = test system: insulin-induced hypoglycemia rat model; experiment: Efficacy in insulin-induced hypoglycemic rat model; format: in vivo, SD rats; settings: for Blood glucose 60 min / Blood glucose 75 min / Blood glucose 90 min / Blood glucose 105 min: insulin 0.65 IU/kg at T0
[4] = Pharmacokinetics in rats after subcutaneous injection; format: in vivo, SD rats; settings: plasma
Description: (1) Animals were grouped according to Table 12, and were given free access to water and food before administration.
• Sampling time: 0 min pre-dose, and 2 min, 4 min, 7 min, 10 min, 20 min, 40 min, 1 h and 2 h post-dose. Blood was collected from rats by jugular catheterization.
• 1) 0.2 mL of whole blood was collected at each time point into a centrifuge tube containing EDTA-K2; • 2) The blood samples were centrifuged at 4000 g at 4° C. for 5 min, and separated to give the plasma; • 3) The plasma samples were cryopreserved at −80° C.
The mixture was vortexed for 5 min and centrifuged at a low temperature for 10 min. 100 μL of the supernatant was taken and added to 100 μL of 0.1% formic acid aqueous solution. The mixture was mixed well, and loaded on the instrument for analysis; • Liquid chromatography and mass spectrometry analysis: LC-30A liquid chromatography system (Shimadzu, Japan) and API 5500 liquid chromatography-triple quadrupole mass spectrometer (Analyst Software data processing system, AB Sciex, USA) were used. The chromatographic column was nanomicro Unisil C18aq (4.6 mm×150 mm, 5 μm) chromatographic column; the column temperature was 40° C.; the mobile phase A was 0.1% formic acid aqueous solution, and the mobile phase B was 0.1% formic acid in acetonitrile; the flow rate was 0.5 mL/min; the injection volume was 20 μL; the gradient is shown in Table 13 below. The mass spectrum was obtained using an electrospray ionization (ESI) source, a positive ion analysis mode and a multi reaction monitoring (MRM) scanning mode.
The plasma concentration of the test compounds was measured by HPLC-MS/MS. The plasma concentration-time curve was plotted, and the pharmacokinetic parameters were calculated by PKSolver.

[5] = 0.5 nmol/kg subcutaneous single dose
[6] = 2 nmol/kg subcutaneous single dose
[7] = 6 nmol/kg subcutaneous single dose
[8] = 6 nmol/kg subcutaneous at 45 min
[9] = 12 nmol/kg subcutaneous at 45 min
[10] = 20 nmol/kg subcutaneous at 45 min
[11] = male SD rats, single SC injection, Dasiglucagon 5 mg/kg, 40 5.06 mg/kg
[12] = human, microsomes, 0.25 h, 1 μM

T1 sequence (P43220 24-463): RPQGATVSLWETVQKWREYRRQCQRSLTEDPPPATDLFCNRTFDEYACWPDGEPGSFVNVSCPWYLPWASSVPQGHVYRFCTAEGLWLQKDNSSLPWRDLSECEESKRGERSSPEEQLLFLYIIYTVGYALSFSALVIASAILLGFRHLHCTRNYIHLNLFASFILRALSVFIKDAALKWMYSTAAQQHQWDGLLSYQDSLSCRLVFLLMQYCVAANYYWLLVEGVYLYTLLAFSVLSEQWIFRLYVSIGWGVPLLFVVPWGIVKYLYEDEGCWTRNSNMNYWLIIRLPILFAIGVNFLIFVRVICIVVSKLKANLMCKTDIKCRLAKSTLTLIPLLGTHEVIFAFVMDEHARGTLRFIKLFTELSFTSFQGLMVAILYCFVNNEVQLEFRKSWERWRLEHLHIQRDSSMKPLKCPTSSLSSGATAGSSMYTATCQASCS

CC(C)C[C@H](NC(=O)[C@H](Cc1ccc(O)cc1)NC(=O)[C@H](CCCCN)NC(=O)[C@H](CO)NC(=O)[C@H](Cc1ccc(O)cc1)NC(=O)[C@H](CC(=O)O)NC(=O)[C@H](CO)NC(=O)[C@@H](NC(=O)[C@H](Cc1ccccc1)NC(=O)[C@@H](NC(=O)CNC(=O)[C@H](CCC(N)=O)NC(=O)[C@H](CO)NC(=O)[C@@H](N)Cc1c[nH]cn1)[C@@H](C)O)[C@@H](C)O)C(=O)N[C@@H](CC(=O)O)C(=O)N[C@@H](CC(C)C)C(=O)NC(C)(C)C(=O)N[C@@H](CCCNC(=N)N)C(=O)N[C@@H](C)C(=O)N[C@@H](CCC(N)=O)C(=O)N[C@@H](CCC(=O)O)C(=O)N[C@@H](Cc1ccccc1)C(=O)N[C@H](C(=O)N[C@@H](CCC(N)=O)C(=O)N[C@@H](Cc1c[nH]c2ccccc12)C(=O)N[C@@H](CC(C)C)C(=O)N[C@@H](CCC(=O)O)C(=O)N[C@@H](CO)C(=O)N[C@H](C(=O)O)[C@@H](C)O)C(C)C [Compound 40] (H-HSQGTFTSDYSKYLDL[Aib]RAQEFVQWLEST-OH)
GLP-1R % Activity relative to native GLP-1 (human GLP-1R): 0.192%
EC50 (human GIPR; CHO-K1/GIPR cell line, cAMP): > 100 nM
GIPR % Activity relative to native GIP (human GIPR; relative to native GIP): <0.0700%
solubility at 5 min [1]: 5190 µg/mL (≈ 1520 µM)
Blood glucose 15 min [2, 5]: 9.45 mmol/L
Blood glucose 30 min [2, 5]: 8.55 mmol/L
Blood glucose 45 min [2, 5]: 6.93 mmol/L
Blood glucose 60 min [2, 5]: 6.10 mmol/L
Blood glucose 15 min [2, 6]: 8.60 mmol/L
Blood glucose 30 min [2, 6]: 9.52 mmol/L
Blood glucose 45 min [2, 6]: 8.35 mmol/L
Blood glucose 60 min [2, 6]: 6.40 mmol/L
Blood glucose 15 min [2, 7]: 9.63 mmol/L
Blood glucose 30 min [2, 7]: 10.22 mmol/L
Blood glucose 45 min [2, 7]: 8.83 mmol/L
Blood glucose 60 min [2, 7]: 7.10 mmol/L
Hyperglycemic efficacy (in words) ([2]; listed as Glucagon analog 40): raised the blood glucose level in rats in a dose-dependent manner
Hyperglycemic efficacy (in words) ([2]; listed as glucagon analog 40): significantly better than that of Dasiglucagon
Blood glucose 60 min [3, 8]: 6.65 mmol/L
Blood glucose 75 min [3, 8]: 9.05 mmol/L
Blood glucose 90 min [3, 8]: 7.08 mmol/L
Blood glucose 105 min [3, 8]: 6.99 mmol/L
Blood glucose 60 min [3, 9]: 7.40 mmol/L
Blood glucose 75 min [3, 9]: 9.50 mmol/L
Blood glucose 90 min [3, 9]: 9.13 mmol/L
Blood glucose 105 min [3, 9]: 8.63 mmol/L
Blood glucose 60 min [3, 10]: 6.87 mmol/L
Blood glucose 75 min [3, 10]: 9.68 mmol/L
Blood glucose 90 min [3, 10]: 9.28 mmol/L
Blood glucose 105 min [3, 10]: 9.00 mmol/L
Effect on raising blood glucose level (in words) ([3]; same dose (12 nmol/kg)): significantly better than that of Dasiglucagon and lasts longer
AUClast/D [4, 11]: 176 h·ng/mL per mg/kg
T1/2 [4, 11]: 24.8 min
Tmax ([4]; male, SD, rat, sc): 7.02 min
half-life ([4]; male, SD, rat, sc, male SD rats, single SC injection, Dasiglucagon 5 mg/kg, 40 5.06 mg/kg): 24.6 min
bioavailability ([4]; male, SD, rat, sc, read-out: Bioavailability (F %)): 88.2%
Percentage residues 0 min (human liver microsomes): 100.0%
T½ (human liver microsomes; human, microsomes, 1 μM): 125.37 min
Percentage residues 15 min (human liver microsomes; [12]): 100.5%
Percentage residues 30 min (human liver microsomes; human, microsomes, 0.5 h, 1 μM): 89.85%
Percentage residues 60 min (human liver microsomes; human, microsomes, 1 h, 1 μM): 66.96%
Percentage residues 120 min (human liver microsomes; human, microsomes, 2 h, 1 μM): 41.48%
Percentage residues 0 min (human kidney microsomes): 100.0%
Percentage residues 60 min (human kidney microsomes): 25.16%
T½ (human kidney microsomes; human, microsomes, 1 μM): 38.19 min
Percentage residues 15 min (human kidney microsomes; [12]): 63.34%
Percentage residues 30 min (human kidney microsomes; human, microsomes, 0.5 h, 1 μM): 45.04%
Percentage residues 120 min (human kidney microsomes; human, microsomes, 2 h, 1 μM): 10.61%
